Patent US4031198A, “Technetium-labeled complexes, production and use thereof” (priority 1974, dated 1977)

Experiments:
[1] = Partition coefficient of Tc complexes, water/n-octyl alcohol, by radioactivity; type: physicochemical; details: water/n-octanol
Text: These partition coefficient studies involve plotting pH vs. The natural logarithm of the ratio of the activity in water to the activity in normal octyl alcohol, hereinafter referred to as ln(aw /ao). In the pH range of 5 to 8, the complex should not be so lipophilic as to have an ln(aw /ao) of less than -2, particularly at the higher pH levels. On the other hand, the hydrophilicity must also be kept within limits, as the following table illustrates:
Acid, salt, hydroxyl, amino or other polar groups present on the complexing agent molecule can provide a water solubilizing or hydrophilic effect which is reflected in higher ln aw /ao values, but due regard must be accorded to the variety of fluids, organs and tissues in mammals, each of which can have a distinctively acidic or basic environment, ranging from, for example, the low pH of the stomach to the relatively high pH of the intestines. The blood is on the mildly alkaline side at pH = 7.4. Thus, partition coefficient data on the Tc-complexes of this invention are preferably obtained throughout the pH range of 5 to 8. The use of partition coefficient data in pharmacology is well-established; see Andrejus Korolkvas, Essentials of Molecular Pharmacology, Wiley (interscience), N.Y., N.Y., 1970. […] Natural logarithms of partition coefficients are tabulated in several of the Examples which follow.
Partition coefficients for the Tc-DHT complex of this Example were determined with a water/n-octyl alcohol system over the pH range of 5 to 8 using radioactive measurements to determine the amount of Tc-99m in each phase. The expression aw /ao is the ratio of the activity in water to the activity in n-octyl alcohol. For comparison, partition coefficients over the same pH range were determined for sodium 99m pertechnetate and cysteine (HS-CH2 CH(NH2)COOH).
The aw /ao ratios for the 99mTc-4-mercaptobutanol complex were determined as in Example 1, except that two independently determined ln(aw /ao) vs. pH plots were averaged.
The aw /ao ratios for the Tc 99m complex of this Example were determined as in Example 1. The results (ln data accurate to ± 0.5) were as follows:
A series of Tc-99m complexes were made by reducing NaTcO4 and reacting the reduced Tc-99m species with the following aliphatic mercapto alcohols:
Partition coefficients were determined as in Examples 1, 3, and 5 in Tables II, III, and VI.

[2] = In vivo study of liver or gall-bladder specificity

| SMILES | logD ([1]; pH 5) | logD ([1]; pH 6) | logD ([1]; pH 7) | logD ([1]; pH 8) | Ln of partition coefficient, ln(aw /ao) ([1]; pH 5) | Ln of partition coefficient, ln(aw /ao) ([1]; pH 6) | Ln of partition coefficient, ln(aw /ao) ([1]; pH 7) | Ln of partition coefficient, ln(aw /ao) ([1]; pH 8) | liver or gall-bladder specificity [2] |
| --- | --- | --- | --- | --- | --- | --- | --- | --- | --- |
| OCCCCCS [5-mercapto pentanol] | -0.2 | -0.1 | -0.1 | 0 |  |  |  |  |  |
| OCCCS [3-mercapto propanol] |  |  |  |  | -0.5 | -0.4 | -0.3 | -0.2 |  |
| [Na+].[O]=[99Tc](=[O])(=[O])[O-] [Na99mTcO4, sodium 99m pertechnetate, reference compound] |  |  |  |  | +3.2 | +3.3 | +3.5 | +3.6 | insufficient liver or gall-bladder specificity |
| OCCS [2-mercapto-ethanol] |  |  |  |  | -0.9 | -0.8 | -0.7 | -0.6 |  |
| CC(C)(O)CCS [4-mercapto-2-methyl-2-butanol] | 1 | 1.1 | 1.2 | 1.3 |  |  |  |  |  |
